Results taken from patent publication US20250353873A1, “COMPOUNDS AND METHODS FOR MODULATING APOE EXPRESSION” (Ionis Pharmaceuticals, Inc., priority 2024, published 2025).
“And” between values parts separate entries of the source, which are not always exact repeats. Equal values may be shown once. Strand notation (5' to 3'): a small letter for the sugar, then the base; units joined by * are phosphorothioate-linked, units joined directly phosphodiester-linked; [ ] holds rarer units or linkages, { } end groups; capitals alone tell only the bases. [ms] = mesyl phosphoramidate linkage; e = 2'-O-(2-methoxyethyl) (MOE); k = constrained ethyl (cEt); [5mC] = 5-methylcytosine; d = 2'-deoxy (DNA)

Columns and labels:
human APOE RNA [1] = experiment: Activity in APOE C57BL/6NTac-Apoeem7250 knock-in mice, single ICV bolus, 8 weeks (Example 11); assay type: in vivo; conditions: single ICV bolus 300 μg, 8 weeks post treatment, normalized to mouse Ppia
Procedure, shortened: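 Cortical and spinal cord human APOE RNA quantified by RT-qPCR 8 weeks after a single 300 μg ICV dose in knock-in mice, Ppia-normalized. Values are percent of levels in PBS-treated animals.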

human APOE RNA [2] = experiment: Activity in APOE C57BL/6NTac-Apoeem7250 knock-in mice, single ICV bolus, 16 weeks (Example 12); assay type: in vivo; conditions: single ICV bolus 300 μg, 16 weeks post treatment, normalized to mouse Ppia
Procedure, shortened: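 A single 300 μg intracerebroventricular dose was given, with PBS-treated mice as reference; cortical and spinal cord tissue was taken 16 weeks later. RT-qPCR quantified human APOE RNA, Ppia-normalized, expressed relative to PBS animals (% control).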

human APOE RNA [3] = experiment: Activity in APOE C57BL/6NTac-Apoeem7250 knock-in mice, single ICV bolus, 20 weeks (Example 13); assay type: in vivo; conditions: single ICV bolus 300 μg, 20 weeks post treatment, normalized to mouse Ppia
Procedure, shortened: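 Cortical and spinal cord RNA was assayed by real-time RT-PCR for human APOE, normalized to mouse Ppia and reported as percent of PBS controls. Tissue was taken twenty weeks after one 300 μg intracerebroventricular bolus in APOE knock-in mice, 4 per group.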

human APOE RNA [4] = experiment: Activity in APOE C57BL/6NTac-Apoeem7250 knock-in mice, single ICV bolus, 4 weeks (Example 10); assay type: in vivo; conditions: single ICV bolus 300 μg, 4 weeks post treatment, normalized to mouse Ppia
Procedure, shortened: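 Human APOE RNA, quantified by real-time RT-PCR with RTS3073 and normalized to mouse Ppia, was read in cortical brain and spinal cord 4 weeks post dosing. Dosing was a single ICV bolus of 300 μg per knock-in mouse; values are % of PBS-treated animals.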

human APOE RNA [5] = experiment: Potency (dose response, ED50) in APOE C57BL/6NTac-Apoeem7250 knock-in mice, 4 weeks (Example 14); assay type: in vivo
Experimental: Modified oligonucleotides described above were tested in the APOE C57BL/6NTac-Apoeem7250 knock-in mouse model described above.
APOE C57BL/6NTac-Apoeem7250 knock-in mice were divided into groups of 3-4 mice each. A group of 3-4 mice received a single ICV bolus with PBS as a negative control.
Four weeks post treatment, mice were sacrificed, and RNA was extracted from cortical brain tissue and spinal cord for quantitative real-time RT-PCR analysis of RNA expression of […] using human primer probe set RTS3073 (described herein above). APOE RNA levels were normalized to mouse Ppia. Mouse Ppia was amplified using primer probe set m_cyclo24 (described herein above). Results are presented as percent human APOE RNA relative to the amount of APOE RNA in PBS treated animals, (% control). N.C. indicates values that were not calculated. Each experiment is identified in separate tables below.
The half maximal effective dose (ED50) of each modified oligonucleotide was calculated using GraphPad Prism 10 software (GraphPad Software, San Diego, CA).

human APOE RNA [6] = experiment: Dose-dependent inhibition of human APOE RNA in HepG2 cells, electroporation, 50,000 cells per well, RT-PCR normalized to GAPDH (Example 4, Tables 8-10); assay type: cell-based
Procedure, shortened: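 Readout is percent APOE RNA versus untreated controls, measured by RT-PCR (primer probe set RTS3073) and normalized to human GAPDH. Modified oligonucleotides were delivered by electroporation at varying doses into HepG2 cells plated at 50,000 per well.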

human APOE RNA [7] = experiment: Duration of action study in APOE C57BL/6NTac-Apoeem7250 knock-in mice (Example 16); assay type: in vivo; conditions: 300 μg ICV
Procedure, shortened: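 Knock-in mice (2-4 per group) received a single ICV bolus of 300 μg oligonucleotide or PBS. At various timepoints, cortex and spinal cord human APOE RNA was measured by RT-qPCR (RTS3073), normalized to mouse Ppia and expressed as % of PBS control.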

human APOE RNA [8] = experiment: Dose-dependent inhibition of human APOE RNA in differentiated SH-SY5Y cells, free uptake, 5 days (Example 5); assay type: cell-based; conditions: 5 days (Table 14)
Experimental: Modified oligonucleotides selected from the examples above were tested at various doses in differentiated SH-SY5Y cells. The modified oligonucleotides were tested in a series of experiments that had the same culture conditions.
Differentiated SH-SY5Y cells plated at a density of 10,000 cells per well were treated by free uptake with various concentrations of modified oligonucleotide as specified in the tables below. […] APOE RNA levels were measured using the human primer probe set RTS3073 (described herein above). APOE RNA levels were normalized to human PPIA. Human PPIA was amplified using human primer probe set mk_cycloA_2nd (described herein above). Results are presented as percent APOE RNA, relative to the amount of APOE RNA in untreated control cells (% UTC). The half maximal inhibitory concentration (IC50) of each modified oligonucleotide was calculated in GraphPad Prism 10 (GraphPad Software, San Diego, CA) and is also presented in the tables below.

## 1778154: modified oligonucleotide complementary to human APOE RNA (e[5mC]*eT*eTeGeGeT*dG[ms]dA[ms]dA*dT*d[5mC]*dT*dT*dT*dA*dT*kTkAeA*eA; antisense) [compound 1778154]
Human APOE RNA [1]
  APOE RNA (% control) Cortex: 29 % control
  APOE RNA (% control) Spinal Cord: 32 % control
Human APOE RNA [2]; cortex
  APOE RNA (% control) Cortex: 50 % control
Human APOE RNA [2]; spinal cord
  APOE RNA (% control) Spinal Cord: 29 % control
Human APOE RNA [3]; cortex
  APOE RNA (% control) Cortex: 82 % control
Human APOE RNA [3]; spinal cord
  APOE RNA (% control) Spinal Cord: 46 % control
Human APOE RNA [4]
  APOE RNA (% control) Cortex: 30 % control
  APOE RNA (% control) Spinal Cord: 44 % control
Human APOE RNA [5]; cortex, ICV dose 10 μg
  APOE RNA (% control) Cortex: 89 % control
Human APOE RNA [5]; cortex, ICV dose 30 μg
  APOE RNA (% control) Cortex: 89 % control
Human APOE RNA [5]; cortex, ICV dose 100 μg
  APOE RNA (% control) Cortex: 70 % control
Human APOE RNA [5]; cortex, ICV dose 300 μg
  APOE RNA (% control) Cortex: 56 % control
Human APOE RNA [5]; cortex, ICV dose 700 μg
  APOE RNA (% control) Cortex: 27 % control
Human APOE RNA [5]; cortex, single ICV bolus, GraphPad Prism 10
  ED 50 (μg) Cortex: 279.4 µg
Human APOE RNA [5]; spinal cord, ICV dose 10 μg
  APOE RNA (% control) Spinal Cord: 105 % control
Human APOE RNA [5]; spinal cord, ICV dose 30 μg
  APOE RNA (% control) Spinal Cord: 137 % control
Human APOE RNA [5]; spinal cord, ICV dose 100 μg
  APOE RNA (% control) Spinal Cord: 38 % control
Human APOE RNA [5]; spinal cord, ICV dose 300 μg
  APOE RNA (% control) Spinal Cord: 43 % control
Human APOE RNA [5]; spinal cord, ICV dose 700 μg
  APOE RNA (% control) Spinal Cord: 47 % control
Human APOE RNA [5]; spinal cord, single ICV bolus, GraphPad Prism 10
  ED 50 (μg) Spinal Cord: 243.1 µg
Human APOE RNA [6]; HepG2 cells, electroporation, 24-hour treatment, 5 nM, Table 8
  APOE RNA (% UTC) 5 nM: 101 % UTC
Human APOE RNA [6]; HepG2 cells, electroporation, 24-hour treatment, 13 nM, Table 8
  APOE RNA (% UTC) 13 nM: 97 % UTC
Human APOE RNA [6]; HepG2 cells, electroporation, 24-hour treatment, 33 nM, Table 8
  APOE RNA (% UTC) 33 nM: 91 % UTC
Human APOE RNA [6]; HepG2 cells, electroporation, 24-hour treatment, 82 nM, Table 8
  APOE RNA (% UTC) 82 nM: 98 % UTC
Human APOE RNA [6]; HepG2 cells, electroporation, 24-hour treatment, 205 nM, Table 8
  APOE RNA (% UTC) 205 nM: 76 % UTC
Human APOE RNA [6]; HepG2 cells, electroporation, 24-hour treatment, 512 nM, Table 8
  APOE RNA (% UTC) 512 nM: 58 % UTC
Human APOE RNA [6]; HepG2 cells, electroporation, 24-hour treatment, 1,280 nM, Table 8
  APOE RNA (% UTC) 1,280 nM: 47 % UTC
Human APOE RNA [6]; HepG2 cells, electroporation, 24-hour treatment, 3,200 nM, Table 8
  APOE RNA (% UTC) 3,200 nM: 22 % UTC
Human APOE RNA [6]; HepG2 cells, electroporation, 24-hour treatment, 8,000 nM, Table 8
  APOE RNA (% UTC) 8,000 nM: 35 % UTC
Human APOE RNA [6]; HepG2 cells, electroporation, 24-hour treatment, 20,000 nM, Table 8
  APOE RNA (% UTC) 20,000 nM: 8 % UTC
Human APOE RNA [6]; reduction of human APOE RNA, HepG2 cells, electroporation, 24-hour treatment, Table 8
  IC50: 1.08 µM

## 1746804 (k[5mC]*kT*kT*dG[ms]dG[ms]dT[ms]dG[ms]dA[ms]dA[ms]dT*d[5mC]*dT*dT*dT*dA[ms]dT*dT[ms]kA*kA*kA; antisense) [Compound 1746804]
Human APOE RNA [7]; 112 days post-dose
  APOE RNA (% control) Cortex: 37 % control
  APOE RNA (% control) Spinal Cord: 205 % control
Human APOE RNA [7]; 140 days post-dose
  APOE RNA (% control) Cortex: 60 % control
  APOE RNA (% control) Spinal Cord: 207 % control
Human APOE RNA [1]
  APOE RNA (% control) Cortex: 40 % control
  APOE RNA (% control) Spinal Cord: 25 % control
Human APOE RNA [8]; 5 nM
  APOE RNA (% UTC): 114 % UTC
Human APOE RNA [8]; 13 nM
  APOE RNA (% UTC): 117 % UTC
Human APOE RNA [8]; 33 nM
  APOE RNA (% UTC): 120 % UTC
Human APOE RNA [8]; 82 nM
  APOE RNA (% UTC): 97 % UTC
Human APOE RNA [8]; 205 nM
  APOE RNA (% UTC): 84 % UTC
Human APOE RNA [8]; 512 nM
  APOE RNA (% UTC): 82 % UTC
Human APOE RNA [8]; 1,280 nM
  APOE RNA (% UTC): 61 % UTC
Human APOE RNA [8]; 3,200 nM
  APOE RNA (% UTC): 48 % UTC
Human APOE RNA [8]; 8,000 nM
  APOE RNA (% UTC): 32 % UTC
Human APOE RNA [8]; 20,000 nM
  APOE RNA (% UTC): 18 % UTC
Human APOE RNA [8]
  IC50: 2.83 µM
Human APOE RNA [4]
  APOE RNA (% control) Cortex: 51 % control and 46 % control
  APOE RNA (% control) Spinal Cord: 52 % control and 40 % control
Human APOE RNA [6]; 5 nM, HepG2, electroporation, 24-hour treatment
  APOE RNA (% UTC): 89 % UTC
Human APOE RNA [6]; 13 nM, HepG2, electroporation, 24-hour treatment
  APOE RNA (% UTC): 88 % UTC
Human APOE RNA [6]; 33 nM, HepG2, electroporation, 24-hour treatment
  APOE RNA (% UTC): 80 % UTC
Human APOE RNA [6]; 82 nM, HepG2, electroporation, 24-hour treatment
  APOE RNA (% UTC): 81 % UTC
Human APOE RNA [6]; 205 nM, HepG2, electroporation, 24-hour treatment
  APOE RNA (% UTC): 66 % UTC
Human APOE RNA [6]; 512 nM, HepG2, electroporation, 24-hour treatment
  APOE RNA (% UTC): 57 % UTC
Human APOE RNA [6]; 1,280 nM, HepG2, electroporation, 24-hour treatment
  APOE RNA (% UTC): 45 % UTC
Human APOE RNA [6]; 3,200 nM, HepG2, electroporation, 24-hour treatment
  APOE RNA (% UTC): 40 % UTC
Human APOE RNA [6]; 8,000 nM, HepG2, electroporation, 24-hour treatment
  APOE RNA (% UTC): 4 % UTC
Human APOE RNA [6]; 20,000 nM, HepG2, electroporation, 24-hour treatment
  APOE RNA (% UTC): 2 % UTC
Human APOE RNA [6]; HepG2, electroporation, 24-hour treatment
  IC50: 0.68 µM
